The target of test [1] is T1, ALDH1A2 (Homo sapiens, UniProt O94788).
T1 construct: His-tag; made in house; host or cells: bacterial cells
T1 sequence (O94788 1-518): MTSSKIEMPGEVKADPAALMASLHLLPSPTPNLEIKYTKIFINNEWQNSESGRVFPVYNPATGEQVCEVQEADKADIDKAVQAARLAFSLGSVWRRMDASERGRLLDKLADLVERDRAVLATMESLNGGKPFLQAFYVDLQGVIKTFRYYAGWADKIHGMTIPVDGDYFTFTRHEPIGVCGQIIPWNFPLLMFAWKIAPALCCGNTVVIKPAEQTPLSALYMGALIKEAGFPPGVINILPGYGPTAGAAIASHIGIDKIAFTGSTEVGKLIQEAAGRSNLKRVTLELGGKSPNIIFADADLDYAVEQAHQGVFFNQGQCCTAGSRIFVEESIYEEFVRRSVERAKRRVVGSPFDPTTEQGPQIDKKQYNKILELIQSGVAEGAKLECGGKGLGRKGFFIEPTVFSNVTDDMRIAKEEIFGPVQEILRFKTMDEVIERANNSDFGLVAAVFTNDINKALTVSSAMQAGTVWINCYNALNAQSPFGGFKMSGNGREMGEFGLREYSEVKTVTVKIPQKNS
In words: KD evaluation by probe fluorescence (Tecan SPARK). In kind it is binding. The note with it: probe fixed at 10 μM, isoenzyme 100 μM to 1 μM. The protocol:
(§1) A common protocol to express and purify all three members of the ALDHIA subfamily has been optimized. Briefly, induced cells, collected by centrifugation, were re-suspended in an appropriate volume of lysis buffer (50 mM Na2HPO4, 300 mM NaCl, 1 mM β-mercaptoethanol, 20 mM imidazole, pH 7.5) added of benzonase nuclease (250 U/μL) and Protease inhibitor cocktail from SIGMA. After ultracentrifugation, the clarified sample was purified by a His-tag affinity chromatography followed by size-exclusion chromatography, using an AKTA FPLC system, at 4° C. To evaluate the purity and homogeneity of the protein, after each purification step, eluted d fractions were analyzed by SDS-PAGE and the protein quantification was always determined by Bradford protein assay.
(§2) KD evaluation: on a Tecan—SPARK, probe 14 and 13 were tested at a fixed concentration of 10 μM. All the isoenzymes were tested in wide range of concentrations (from 100 μM to 1 μM). The analysis was settled with a BW of 20, monitoring the Em wavelength in range comprised between 520 and 535 nm for probe 14 and 520 and 580 nm for probe 13. The Ex was fixed at 420 nm for probe 14 and 440 nm for probe 13. The test was performed in quadruplicate with all the three isoenzymes. The recipe of the buffer reaction was the same as described before.

The target of the next test is T2, ALDH1A1 (Homo sapiens, UniProt P00352).
T2 construct: His-tag; made in house; host or cells: bacterial cells
T2 sequence (P00352 1-501): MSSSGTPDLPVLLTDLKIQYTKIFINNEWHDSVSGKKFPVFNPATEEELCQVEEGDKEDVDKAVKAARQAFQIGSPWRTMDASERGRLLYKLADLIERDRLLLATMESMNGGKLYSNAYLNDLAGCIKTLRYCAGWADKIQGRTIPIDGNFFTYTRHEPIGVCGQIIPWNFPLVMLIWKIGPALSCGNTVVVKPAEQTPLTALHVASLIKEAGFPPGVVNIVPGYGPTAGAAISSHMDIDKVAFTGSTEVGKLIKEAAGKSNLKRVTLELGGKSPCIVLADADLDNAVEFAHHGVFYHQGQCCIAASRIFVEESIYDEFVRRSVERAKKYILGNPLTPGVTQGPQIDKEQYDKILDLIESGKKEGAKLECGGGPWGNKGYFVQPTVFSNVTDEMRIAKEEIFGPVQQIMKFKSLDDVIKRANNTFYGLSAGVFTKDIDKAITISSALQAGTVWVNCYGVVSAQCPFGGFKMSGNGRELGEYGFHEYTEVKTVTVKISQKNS
The test is described as follows: KD evaluation by probe fluorescence (Tecan SPARK). Format: binding. As to conditions: probe fixed at 10 μM, isoenzyme 100 μM to 1 μM. The protocol: as §1, §2

For test [2], the target named is T1, ALDH1A2. The test is described as follows: IC50 evaluation, NADH formation at 340 nm (Tecan SUNRISE). Format: biochemical. As to conditions: 20 mM acetaldehyde, 500 μM NAD+, 15% DMSO, 2.7 μM isoenzyme, read-out: IC50. The protocol: as §1
(§3) IC50 evaluation: on a Tecan—SUNRISE, probe 13 was tested in a serial dilution series from 200 μM to 3, 125 μM, against all the three isoenzymes. The recipe of reaction buffer was: 20 mM Tris HCl pH=8, 150 mM KCl, 1 mM B-mercaptoethanol, 500 μM NAD^+, 15% DMSO fixed, 20 mM acetaldehyde and 2.7 μM each isoenzyme. The analysis was conducted measuring the NADH formation, that has a specific absorbance wavelength (340 nm). The test was performed in triplicate with all the three isoenzymes.

The target of test [3] is T3, ALDH1A3 (Homo sapiens, UniProt P47895).
T3 construct: His-tag; made in house; host or cells: bacterial cells
T3 sequence (P47895 1-512): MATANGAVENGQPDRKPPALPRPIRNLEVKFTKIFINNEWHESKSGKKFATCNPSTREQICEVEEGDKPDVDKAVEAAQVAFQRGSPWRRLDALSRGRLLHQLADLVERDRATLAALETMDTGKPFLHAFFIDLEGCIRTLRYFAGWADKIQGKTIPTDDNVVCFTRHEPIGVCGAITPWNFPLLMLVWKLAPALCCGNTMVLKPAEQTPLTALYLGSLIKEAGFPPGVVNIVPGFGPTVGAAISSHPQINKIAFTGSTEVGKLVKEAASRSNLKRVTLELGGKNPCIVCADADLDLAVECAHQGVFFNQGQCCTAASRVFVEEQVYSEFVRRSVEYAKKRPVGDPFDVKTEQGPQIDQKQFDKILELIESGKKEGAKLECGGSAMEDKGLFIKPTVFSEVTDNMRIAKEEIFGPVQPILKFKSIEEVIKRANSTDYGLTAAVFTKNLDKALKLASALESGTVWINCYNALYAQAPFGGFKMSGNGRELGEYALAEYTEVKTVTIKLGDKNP
The test is described as above. The note with it: ALDH1A3; 20 mM acetaldehyde, 500 μM NAD+, 15% DMSO, 2.7 μM isoenzyme; read-out: IC50. Format: biochemical. On the procedure: as §1, §3

Test [4] addresses T3, ALDH1A3. In words: Fluorescence of probes in buffer and in complex with the isoenzymes (Tecan SPARK). In kind it is binding. As to conditions: in complex with the three isoenzymes, in particular ALDH1A3. On the procedure:
All five compounds were dissolved in DMSO (100%) to obtain two different initial stocks, one at 10 mM and a second one at 1 mM. […] The assay can be executed at a maximum DMSO percentage of 15%. The maximum probe concentration tested was 500 uM—15% DMSO. All the compounds were tested using a Tecan—SPARK, to analyze their absorbance, excitation and emission wavelength. Based on the literature, the absorbance of the curcumin by itself is comprised between 420 and 425 nm. At first, we measured the absorbance, and from those values, we performed a 3D analysis to highlights the correct Ex and Em wavelengths. To avoid any possible background in the fluorescence signal we performed a screening of every possible buffer used in our assays.

A word on the Kd: it is the equilibrium constant for the complex coming apart. As a reminder, the IC50 is the concentration at which inhibition is half-maximal.

With `COc1cc(/C=C/C(=O)/C=C(O)/C=C/c2ccc(OCc3cn(CCOc4ccc(C=O)cc4)nn3)c(OC)c2)ccc1O` [Compound 13], the dissociation constant Kd at ALDH1A2 [1] was 36.9 µM; on ALDH1A1, 31.1 µM. Further, the results for the IC50 at ALDH1A2 [2] and on ALDH1A3 [3] were 131 µM and 1.5 µM, respectively. Moreover, the “increase of fluorescence in complex with the isoenzymes” value on ALDH1A3 [4] is given as “significant positive increment”.

As for `CCOC(=O)Cn1cc(COc2ccc(/C=C/C(O)=C/C(=O)/C=C/c3ccc(O)c(OC)c3)cc2OC)nn1` [Compound 14], the results for the Kd on ALDH1A2 [1] and on ALDH1A1 were 125 µM and 42.4 µM, respectively. Moreover, the IC50 was 92.8 µM at ALDH1A2 [2] and 14.5 µM at ALDH1A3 [3]. At ALDH1A3 [4], the “increase of fluorescence in complex with the isoenzymes” value is recorded as “significant positive increment”.

The record behind these values is patent publication US20250281649A1, “PROBE DIRECTED TO ENZYME ALDH1A3 AND USE THEREOF IN THE DIAGNOSIS OF GLIOBLASTOMA” (Universita' Degli Studi Del Piemonte Orientale "A. Avogadro", priority 2021, published 2025).
